Counter-ions that a name gives are not always drawn. Like-named read-outs stand apart in the source and are kept apart here.
How the values were obtained:
Experiment in all cases: In vitro antibacterial activity (MIC)
Format in all cases: cell-based
[1] = tested on: S. typhi P58A; conditions: Salmonella enterica, TYPHI
Protocol: (§1) Drug dilutions are prepared in Mueller-Hinton broth ranging from 128 to 0.008 μg/ml. The diluted agents are dispensed in 100 μl amounts into the wells of a 96-well tray and used immediately or frozen at -10° to -70° C. until needed. Using an automated inoculator, 1.5 μl of a 10^-2 dilution of an overnight culture is added to each well of the tray. The tops of the trays are then sealed using transparent tape and incubated overnight at 37° C. The trays are examined with the aid of a viewer. The lowest concentration at which no growth is observed is considered to be the minimum inhibitory concentration (MIC).

[2] = tested on: P. mirabilis 190; conditions: Proteus mirabilis, 190, P. mirabilis 190; read-out: MIC
Protocol: as §1

[3] = tested on: E. cloacae 6951
Protocol: as §1

[4] = tested on: P. aeruginosa 8710; conditions: Pseudomonas aeruginosa; P. aeruginosa 8710; read-out: MIC
Protocol: as §1

[5] = tested on: E. coli 4; conditions: Escherichia coli, 4, E. coli 4; read-out: MIC
Protocol: as §1

[6] = tested on: E. aerogenes 503-478; conditions: Klebsiella aerogenes, 503478, E. aerogenes 503-478; read-out: MIC
Protocol: as §1

[7] = tested on: E. coli 387-1
Protocol: as §1

[8] = tested on: S. marcescens S1; conditions: Serratia marcescens
Protocol: as §1

[9] = tested on: S. aureus 1059B; conditions: Staphylococcus aureus, read-out: MIC
Protocol: as §1

[10] = tested on: P. vulgaris 101; conditions: Proteus vulgaris, 101, P. vulgaris 101; read-out: MIC
Protocol: as §1

[11] = tested on: S. marcescens S4; conditions: Serratia marcescens, S4, S. marcescens S4; read-out: MIC
Protocol: as §1

[12] = tested on: P. aeruginosa POW 151; conditions: Pseudomonas aeruginosa, POW151
Protocol: as §1

[13] = tested on: S. aureus Smith; conditions: Staphylococcus aureus, S. aureus Smith; read-out: MIC
Protocol: as §1

[14] = tested on: K. pneumoniae 8357; conditions: Klebsiella pneumoniae, 8357, K. pneumoniae 8357; read-out: MIC
Protocol: as §1

[15] = tested on: C. freundii CDC6; conditions: Citrobacter freundii, CDC6, C. freundii CDC6; read-out: MIC
Protocol: as §1

[16] = tested on: S. pneumoniae SC; conditions: Streptococcus pneumoniae, read-out: MIC
Protocol: as §1

[17] = tested on: S. marcescens SM; conditions: Serratia marcescens, read-out: MIC
Protocol: as §1

[18] = tested on: K. pneumoniae HE7; conditions: Klebsiella pneumoniae; K. pneumoniae HE7; read-out: MIC
Protocol: as §1

[19] = tested on: K. pneumoniae 35
Protocol: as §1

[20] = tested on: S. pneumoniae 6301
Protocol: as §1

[21] = tested on: P. rettgeri ATCC 9250; conditions: Providencia rettgeri, ATCC9250, P. rettgeri ATCC 9250; read-out: MIC
Protocol: as §1

[22] = tested on: K. pneumoniae 4964
Protocol: as §1

[23] = tested on: S. pyogenes 4; conditions: Streptococcus pyogenes, 4, S. pyogenes 4; read-out: MIC
Protocol: as §1

[24] = tested on: S. pyogenes 503-782; conditions: Streptococcus pyogenes, 503782; S. pyogenes 503-782; read-out: MIC
Protocol: as §1

[25] = tested on: K. pneumoniae 503-964; conditions: Klebsiella pneumoniae, 503964; K. pneumoniae 503-964; read-out: MIC
Protocol: as §1

[26] = tested on: E. coli 503-455
Protocol: as §1

[27] = tested on: P. vulgaris ATCC 6380; conditions: Proteus vulgaris
Protocol: as §1

[28] = tested on: C. freundii 8ASM; conditions: Citrobacter freundii, 8ASM, C. freundii 8ASM; read-out: MIC
Protocol: as §1

[29] = tested on: E. aerogenes 83; conditions: Klebsiella aerogenes, 83, E. aerogenes 83; read-out: MIC
Protocol: as §1

[30] = tested on: S. marcescens 5805
Protocol: as §1

[31] = tested on: P. mirabilis 620A; conditions: Proteus mirabilis, 620A
Protocol: as §1

[32] = tested on: S. marcescens S2; conditions: Serratia marcescens; S. marcescens S2; read-out: MIC
Protocol: as §1

[33] = tested on: E. cloacae 9570A; conditions: Enterobacter cloacae, read-out: MIC
Protocol: as §1

[34] = tested on: S. faecalis C1; conditions: Enterococcus faecalis; S. faecalis C1; read-out: MIC
Protocol: as §1

[35] = tested on: P. aeruginosa 503-56; conditions: Pseudomonas aeruginosa, 50356, P. aeruginosa 503-56
Protocol: as §1

[36] = tested on: S. marcescens S3; conditions: Serratia marcescens; S. marcescens S3; read-out: MIC
Protocol: as §1

[37] = tested on: P. mirabilis 503-1136; conditions: Proteus mirabilis, 5031136, P. mirabilis 503-1136; read-out: MIC
Protocol: as §1

[38] = tested on: K. pneumoniae 5096; conditions: Klebsiella pneumoniae; K. pneumoniae 5096; read-out: MIC
Protocol: as §1

[39] = tested on: E. aerogenes 8; conditions: Klebsiella aerogenes; E. aerogenes 8; read-out: MIC
Protocol: as §1

[40] = tested on: P. aeruginosa Stone 130; conditions: Pseudomonas aeruginosa, STONE130, read-out: MIC
Protocol: as §1

[41] = tested on: E. cloacae 24; conditions: Enterobacter cloacae, 24, E. cloacae 24; read-out: MIC
Protocol: as §1

[42] = tested on: K. pneumoniae A; conditions: Klebsiella pneumoniae, K. pneumoniae A; read-out: MIC
Protocol: as §1

[43] = tested on: E. coli R-563; conditions: Escherichia coli, R563, E. coli R-563; read-out: MIC
Protocol: as §1

[44] = tested on: S. marcescens S147; conditions: Serratia marcescens; S. marcescens S147; read-out: MIC
Protocol: as §1

[45] = tested on: S. aureus Giorgio; conditions: Staphylococcus aureus, S. aureus Giorgio; read-out: MIC
Protocol: as §1

[46] = Escherichia coli, 3871, E. coli 387-1, read-out: MIC
[47] = S1, S. marcescens S1, read-out: MIC
[48] = Klebsiella pneumoniae, K. pneumoniae 35, read-out: MIC
[49] = ATCC6380, P. vulgaris ATCC 6380, read-out: MIC
[50] = Serratia marcescens, 5805, S. marcescens 5805, read-out: MIC
[51] = Enterobacter cloacae, 6951, E. cloacae 6951, read-out: MIC
[52] = Streptococcus pneumoniae, 6301, S. pneumoniae 6301, read-out: MIC
[53] = P. mirabilis 620A, read-out: MIC

## CC1(C)S[C@@H]2[C@H](N=CN3CCC(CCCn4ccnc4N)CC3)C(=O)N2[C@H]1C(=O)O [I, [2S-(2alpha,5alpha,6beta)]-6-[[[4-[3-(2-amino-1H-imidazol-1-yl)propyl]piperidinyl]methylene]amino]-3,3-dimethyl-7-oxo-4-thia-1-azabicyclo[3.2.0]hpetane-2-carboxylic acid hydrochloride]
[1]
  MIC: 0.062 µg/mL
[2]
  MIC: 0.125 µg/mL
[3]; Enterobacter cloacae, 6951
  MIC: 8 µg/mL
[4]
  MIC: 128 µg/mL
[5]
  MIC: 0.031 µg/mL
[6]
  MIC: 1 µg/mL
[7]; [46]
  MIC: 0.062 µg/mL
[8]; [47]
  MIC: 0.062 µg/mL
[9]
  MIC: 64 µg/mL
[10]
  MIC: 128 µg/mL
[11]
  MIC: 0.25 µg/mL
[12]
  MIC: > 128 µg/mL
[13]
  MIC: 16 µg/mL
[14]
  MIC: 0.062 µg/mL
[15]
  MIC: 0.031 µg/mL
[16]
  MIC: 4 µg/mL
[17]
  MIC: 0.062 µg/mL
[18]
  MIC: > 128 µg/mL
[19]; [48]
  MIC: 0.25 µg/mL
[20]; Streptococcus pneumoniae, 6301
  MIC: 2 µg/mL
[21]
  MIC: 0.25 µg/mL
[22]; Klebsiella pneumoniae, 4964
  MIC: 0.25 µg/mL
[23]
  MIC: 1 µg/mL
[24]
  MIC: > 128 µg/mL
[25]
  MIC: 0.062 µg/mL
[26]; Escherichia coli, 503455
  MIC: 1 µg/mL
[27]; [49]
  MIC: 0.062 µg/mL
[28]
  MIC: 0.031 µg/mL
[29]
  MIC: 1 µg/mL
[30]; [50]
  MIC: 0.25 µg/mL
[31]
  MIC: 32 µg/mL
[32]
  MIC: 0.062 µg/mL
[33]
  MIC: 0.125 µg/mL
[34]
  MIC: > 128 µg/mL
[35]; read-out: MIC
  MIC: 128 µg/mL
[36]
  MIC: 0.062 µg/mL
[37]
  MIC: 4 µg/mL
[38]
  MIC: > 128 µg/mL
[39]
  MIC: 128 µg/mL
[40]
  MIC: > 128 µg/mL
[41]
  MIC: 0.125 µg/mL
[42]
  MIC: < 0.008 µg/mL
[43]
  MIC: 0.062 µg/mL
[44]
  MIC: 0.062 µg/mL

## CC1(C)S[C@@H]2[C@H](N=CN3CCC(CCC4=NCCN4)CC3)C(=O)N2[C@H]1C(=O)O [N, [2S-(2alpha,5alpha,6beta)]-6-[[[4-[4,5-dihydro-1H-imidazol-2-yl)ethyl]-1-piperidinyl]methylene]amino]-3,3-dimethyl-7-oxo-4-thia-1-azabicyclo[3.2.0]heptane-2-carboxylic acid hydrochloride]
[1]
  MIC: 0.031 µg/mL
[2]
  MIC: 0.125 µg/mL
[3]; [51]
  MIC: 8 µg/mL
[4]
  MIC: 32 µg/mL
[5]
  MIC: 0.016 µg/mL
[6]
  MIC: 4 µg/mL
[7]; [46]
  MIC: 0.016 µg/mL
[8]; S1
  MIC: 2 µg/mL
[9]
  MIC: 64 µg/mL
[10]
  MIC: 64 µg/mL
[11]
  MIC: 0.25 µg/mL
[12]
  MIC: > 128 µg/mL
[13]
  MIC: 8 µg/mL
[14]
  MIC: 0.125 µg/mL
[15]
  MIC: 0.031 µg/mL
[16]
  MIC: 1 µg/mL
[17]
  MIC: 0.062 µg/mL
[18]
  MIC: > 128 µg/mL
[19]; [48]
  MIC: 0.125 µg/mL
[20]; [52]
  MIC: 1 µg/mL
[21]
  MIC: 0.125 µg/mL
[22]; Klebsiella pneumoniae, 4964
  MIC: 32 µg/mL
[23]
  MIC: 1 µg/mL
[24]
  MIC: 64 µg/mL
[25]
  MIC: 0.062 µg/mL
[26]; Escherichia coli, 503455
  MIC: 1 µg/mL
[27]; [49]
  MIC: 0.031 µg/mL
[28]
  MIC: 0.031 µg/mL
[29]
  MIC: 8 µg/mL
[30]; Serratia marcescens, 5805
  MIC: 0.25 µg/mL
[31]; [53]
  MIC: 128 µg/mL
[32]
  MIC: 0.062 µg/mL
[33]
  MIC: 0.062 µg/mL
[34]
  MIC: 64 µg/mL
[35]
  MIC: 16 µg/mL
[36]
  MIC: 0.062 µg/mL
[37]
  MIC: 4 µg/mL
[38]
  MIC: > 128 µg/mL
[39]
  MIC: 32 µg/mL
[40]
  MIC: > 128 µg/mL
[41]
  MIC: 0.125 µg/mL
[42]
  MIC: 0.016 µg/mL
[43]
  MIC: 0.031 µg/mL
[44]
  MIC: 0.062 µg/mL

## CC1(C)S[C@@H]2[C@H](N=CN3CCCC(c4ncc[nH]4)C3)C(=O)N2[C@H]1C(=O)O (stereo partly drawn) [P, [2S-(2alpha,5alpha,6beta)]-6-[[[3-(1H-imidazol-2-yl)-1-piperidinyl]methylene]amino]-3,3-dimethyl-7-oxo-4-thia-1-azabicyclo[3.2.0]heptane-2-carboxylicacid hydrochloride]
[1]
  MIC: 2 µg/mL
[2]
  MIC: 4 µg/mL
[3]; [51]
  MIC: > 128 µg/mL
[5]
  MIC: 2 µg/mL
[6]
  MIC: > 128 µg/mL
[7]; Escherichia coli, 3871
  MIC: 4 µg/mL
[8]; [47]
  MIC: 8 µg/mL
[9]
  MIC: 64 µg/mL
[10]
  MIC: 64 µg/mL
[11]
  MIC: > 128 µg/mL
[13]
  MIC: 2 µg/mL
[14]
  MIC: 8 µg/mL
[15]
  MIC: 4 µg/mL
[17]
  MIC: 8 µg/mL
[18]
  MIC: 128 µg/mL
[19]; Klebsiella pneumoniae, 35, K. pneumoniae 35
  MIC: 16 µg/mL
[45]
  MIC: 4 µg/mL
[20]; [52]
  MIC: 1 µg/mL
[21]
  MIC: 4 µg/mL
[22]; Klebsiella pneumoniae, 4964, K. pneumoniae 4964, read-out: MIC
  MIC: 64 µg/mL
[25]
  MIC: 8 µg/mL
[26]; Escherichia coli, 503455, E. coli 503-455, read-out: MIC
  MIC: 64 µg/mL
[27]; ATCC6380
  MIC: 0.5 µg/mL
[28]
  MIC: 2 µg/mL
[29]
  MIC: 8 µg/mL
[30]; [50]
  MIC: 128 µg/mL
[31]; [53]
  MIC: > 128 µg/mL
[32]
  MIC: 8 µg/mL
[33]
  MIC: 8 µg/mL
[36]
  MIC: 8 µg/mL
[37]
  MIC: 64 µg/mL
[38]
  MIC: 64 µg/mL
[39]
  MIC: 16 µg/mL
[41]
  MIC: 8 µg/mL
[42]
  MIC: 2 µg/mL
[43]
  MIC: 2 µg/mL
[44]
  MIC: 8 µg/mL
